Experimental data reported in patent publication US20030187267A1, “Novel 1,2,3,4-tetrahydroisoquinoline, their preparation method and their use as fungicides” (priority 2000, published 2003).

Test system: Candida Albicans 44858
Assay: Antifungal activity in mice infected intravenously with Candida Albicans 44858 (dead mice counted)
Format: in vivo
Conditions: female mice, 106 CFU per mouse into the tail vein
Method: Antifungal activity of the product of Example 1 or product P.
Female mice were used weighing 18 to 22 g. A quantity of Candida Albicans 44858 at a rate of 10^6 CFU per mouse (CFU: colony forming unit) is administered into the vein of the tail. The mice are separated into 5 batches of 5 mice and they are treated as follows:
group 1: the mice are treated with product P 25 mg/kg by oral route
group 2: the mice are treated with product P by intraperitoneal route at a rate of 25 mg/kg
group 3: the mice are treated with fluconazole (25 mg/kg by oral route).
group 4: the mice are treated with fluconazole (25 mg/kg by intraperitoneal route).
group 5: the mice receive no antifungal treatment.
For a period of 22 days, the dead mice are counted.

In the case of `CCC(C)n1ncn(-c2ccc(/C=C/CN3CCc4cc(OC[C@H]5CO[C@](Cn6ccnc6)(c6ccc(Cl)cc6Cl)O5)ccc4C3)cc2)c1=O` (relative stereo) [Example 1, 2,4-dihydro-4-[4-[3-[6-[[(cis)-2-(2,4-dichlorophenyl)-2-(1H-imidazol-1-ylmethyl)-1,3-dioxolan-4-yl]-methoxy]-1,2,3,4-tetrahydro-2-isoquinolinyl]-1(E)-propenyl]-phenyl]-2-(1-methylpropyl)-3H-1,2,4-triazol-3-one.], the “Antifungal activity (dead mice counted for a period of 22 days)” value (25 mg/kg by intraperitoneal route 1 hour after infection) is reported as “excellent activity” and the “Antifungal activity (dead mice counted for a period of 22 days)” value (25 mg/kg by oral route 1 hour after infection) is reported as “excellent activity”.
